In patent publication US20200316096A1, “COMBINATION OF DIET AND DRUG THERAPY FOR TREATING CANCER” (Trustees of Boston College, priority 2019, published 2020):

Key:
VM-M3 tumour = test: VM-M3 orthotopic GBM model: bioluminescence imaging and survival; type: in vivo, mouse (VM/Dk)
Procedure: FIGS. 1A-1F. Restricted Ketogenic diet with DON reduces progression and mortality of the VM-M3 GBM. VM/Dk inbred mice were implanted orthotopically with a small (1.0 mm×1.0 mm) tissue fragment from the VM-M3 tumour on day 0. The implanted mice were divided into two groups on day 4 and were fed either; a standard chow diet unrestricted or ad-libitum (SD-UR), or a ketogenic diet (KD-R) in restricted amounts to reduce body weight by about 15%. DON (0.1-1.0 mg/kg) was injected i.p. 7 days following orthotopic tumour implantation. […] 1A. All mice were imaged in-vivo and terminated on day 14 or 15 when all control mice appeared moribund (experiments 1 & 2). For experiment 1, bioluminescence was scored from 0-4, following the administration of lower doses of DON (0.1 and 0.5 mg/kg). Values are expressed as the mean+/−SEM and a one-way analysis of variance followed by Tukey's post hoc test was performed to determine the significance between groups, FIG. 1B. In experiment 2, in-vivo bioluminescent photon values were obtained following the administration of DON (1.0 mg/kg) in mice under the KD-R, FIG. 1C. The average in-vivo bioluminescent photon values were calculated for the KD-R (n=4) and KD-R+DON (n=8) mice in experiment 2. Values are presented as the mean+/−SEM and the P value was calculated using a two-tailed student's t-test, FIG. 1D. in-vivo bioluminescent images of 3 representative mice from both study groups in experiment 2 are shown, FIG. 1E. For experiment 3, a survival study was performed, and a Kaplan Meier survival plot was configured for SD-UR (n=15), SD-UR+DON (n=10), KD-R (n=10), and KD-R+DON (n=10), FIG. 1F.
FIGS. 2A-2C. Restricted Ketogenic diet with DON reduces VM-M3 GBM bioluminescence. VM/Dk mice were implanted with a VM-M3 tumour as described in the previous figures. Mouse brains were imaged ex-vivo on day 14 or 15. Mice were imaged ex-vivo after in-vivo bioluminescent imaging, as described in the previous figures. Individual ex-vivo bioluminescent photon values were measured following the administration of DON (1.0 mg/kg) in KD-R mice, FIG. 2A. From the individual measurements, the average ex-vivo bioluminescent photon value was calculated for both the KD-R (n=6) and KD-R+DON (n=8) mouse groups. Values are presented as the mean+/−SEM and significance of differences was determined following a two-tailed student's t-test, FIG. 2B. ex-vivo bioluminescent images of brains from representative mice in experiment 2 are shown in comparison to SD-UR, FIG. 2C.
To observe the effect of the KD-R and DON on the VM-M3 tumour model, three consecutive experiments were conducted. Experiment 1 included four groups (SD-UR; SD-UR+DON; KDR; KDR+DON) with lower DON dosages (0.1 and 0.5 mg/kg). Experiment 2 involved both in-vivo and ex-vivo imaging of two study groups (KD-R and KD-R+DON) following the administration of a higher dose of DON (1.0 mg/kg). Experiment 3, a survival study, also used the higher DON dose (1.0 mg/kg) and included the four groups from Experiment 1 (SD-UR; SD-UR+DON; KDR; KDR+DON) ( ).
The KD-R+DON treatment was performed as outlined in the study timeline (FIG. 1A). In experiment 1, two doses of DON (0.1 and 0.5 mg/kg) were used in both the SD-UR and KD-R groups (FIG. 1B). d-luciferin was injected i.p. 15 days after tumour implantation, and in-vivo bioluminescence imaging was performed. The total VM-M3 tumour bioluminescence photon values were scored from 0 to 4, with 0 being the baseline value and 4 being the highest value.
Experiment 2 involved a larger number of mice that were treated with a higher dose of DON (1.0 mg/kg). Due to the observed synergy between the KD-R and DON in experiment 1, only the KD-R group was selected for further experiments. All mice in this experiment expressed a significant amount of tumour burden as observed by in-vivo imaging on day 7 (data not shown). […] All untreated SD-UR control mice died between day 15 and 18. […]

[1] = shown previously (ref 33); cited from earlier work
VM-M3 tumour cells = test: VM-M3 brain tumour histology (H&E) and Ki-67 staining; type: in vivo, mouse (VM/Dk); conditions: compared with SD-UR brains
Text: VM/Dk mice were implanted with VM-M3 cells orthotopically in the brain on day 0 as described in the previous figures. The brains were fixed in formalin for histology, processed, and stained as described in Methods. Histological analysis (H&E) was used to validate the presence of tumour cells, FIG. 3A. […] DAPI is used for the Ki-67 negative nuclear stain.
Brain tumour samples were fixed in 10% neutral buffered formalin (Sigma) and embedded in paraffin. The brain tumour samples were sectioned at 5 μm, were stained with haematoxylin and eosin (H&E) at the Harvard University Rodent Histopathology Core Facility (Boston, Mass.), and were examined by light microscopy using either a Zeiss Axioplan 2 or Nikon SMZ1500 light microscope. Images were acquired using SPOT Imaging Solutions (Diagnostic Instruments, Inc.) cameras and software. All histological sections were evaluated at the Harvard University Rodent Histopathology Core Facility.
For immunohistochemistry, the tissue sections from untreated and treated tumour bearing mice were deparaffinized, rehydrated, and washed. The tissue sections were then heat treated (95° C.) in antigen unmasking solution (Vector Laboratories, Burlingame, Calif.) for 30 min. […] Nuclei were stained using NucBlue (Invitrogen). Images were captured by the EVOS FL Cell Imaging System fluorescent microscope. […]

Compound: [N-]=[N+]=CC(=O)CC[C@H](N)C(=O)O [DON, 6-diazo-5-oxo-L-norleucine]
- reduction in tumour growth (VM-M3 tumour; DON 0.5 mg/kg once or twice per week, bioluminescent imaging): 60 to 70%
- resolution of the brain tumour (VM-M3 tumour; DON 1.0 mg/kg, same schedule, bioluminescent imaging): near complete resolution
- lower photon value compared to control SD-UR group (VM-M3 tumour; experiment 1, DON 0.1 and 0.5 mg/kg, in-vivo bioluminescence day 15): 44%
- average ex-vivo photon value (VM-M3 tumour; experiment 2, DON 1.0 mg/kg, FIG. 2B): significant reduction
- mice with baseline value of in-vivo bioluminescence (VM-M3 tumour; experiment 2, KD-R fed mice, DON 1.0 mg/kg, day 14 or 15): 7 out of the 8
- individual ex-vivo bioluminescent values (VM-M3 tumour; experiment 2, KD-R fed mice, DON 1.0 mg/kg, resected brains): below the baseline value
- average in-vivo photon value (VM-M3 tumour; experiment 2, KD-R fed mice, DON 1.0 mg/kg, versus KD-R): significant reduction
- toxic effects in C57BL/6J mice [1]: no toxic effects
- histology (H&E) of primary tumour (VM-M3 tumour cells): significant area of dead cells
